The values below come from patent US20020103169A1, “Chemical derivatives and use thereof as antitelomerase agents” (priority 2000, published 2002).

Like-named read-outs stand apart in the source and are kept apart here.

Usually IC50 stands for the point on the concentration scale where inhibition reaches its midpoint.

The subject of data set [1] is G-quadruplex, oligonucleotide GGGTTAGGGTTAGGGTTAGGG (human telomeric motif). Put plainly: Fluorescence Tm: G-quadruplex stabilization of FAM+DABCYL telomeric oligonucleotide. In kind it is binding. The following applies: product 1 μM, oligonucleotide 0.2 μM, 0.1 M LiCl, 10 mM sodium cacodylate pH 7.6; reference Tm 44° C. An excerpt:
The G-quadruplex stabilizing activity can be determined with a method using the formation of a complex with fluorescein, for which the experimental protocol is described below. The compounds of the present invention can thus be used as a fluorescent probe for determining the presence of G-quadruplexes.
All the oligonucleotides, modified or unmodified, were synthesized by Eurogentec SA, Seraing, Belgium. The FAM+DABCYL oligonucleotide carries the catalogue reference OL-0371-0802 and has the sequence: […] (SEQ ID NO: 1), corresponding to 3.5 repeats of the human telomeric motif (strand rich in G). The fluorescein is attached to the 5′ end and the DABCYL to the 3′ end, via the chemical arms described by Eurogentec. The concentration of the samples was verified by spectrophotometry, recording the absorbance spectrum between 220 nm and 700 nm and using the molar extinction coefficient provided by the supplier. […]
All the measurements of fluorescence were carried out on a Spex Fluorolog DM1B apparatus, using an excitation line width of 1.8 nm and an emission line width of 4.5 nm. […] The oligonucleotide alone was analysed at 20, 30, 40, 50, 60, 70, and 80° C. The emission spectra were recorded using an excitation wavelength of 470 nm. The excitation spectra were recorded using either 515 nm or 588 nm as the emission wavelength. […] When present, this juxtaposition caused the aforementioned phenomenon of extinction of fluorescence, which was used for determining the presence of a G-quadruplex.
A stock solution of oligonucleotide at the strand concentration of 0.2 μM in a 0.1 M LiCl, 10 mM sodium cacodylate buffer, pH 7.6, was prepared beforehand, heated briefly at 90° C. and slowly cooled to 20° C., and then distributed, in 600 μl aliquots, into the fluorescence cuvettes. […]
Each experiment allows the measurement of only one sample. […] During this time, the fluorescence was measured simultaneously at two emission wavelengths (515 nm and 588 nm) using 470 nm as the excitation wavelength. […]

The next data set deals with human telomerase. Put plainly: Telomerase activity assay (TRAP) with HL60 cell extract. In kind it is biochemical. As to conditions: HL60 extract enriched in telomerase activity, TS extension followed by PCR. As for the experimental part:
The extract was stored at -80° C. […] ID NO: 3).

The test system of a further data set is A549 cells. As to the kind of experiment: Cytotoxic activity on human tumor line, neutral red, 96 hours. It is filed as cell-based. As for the experimental part:
The cells in the exponential growth phase were trypsinized, washed in 1X PBS and seeded into 96-well microplates (Costar) in a proportion of 4×10^4 cells/ml (0.2 ml/well). The cells were then incubated for 96 hours in the presence of varying concentrations of product to be tested (10,1, 0.1, and 0.01 μg/ml, each point in quadruplicate). 16 hours before the end of the incubation, 0.02% (final concentration) of neutral red was added to each well. At the end of the incubation, the cells were washed with IX PBS and lysed with 1% of sodium laurylsulphate. The cellular incorporation of the dye, which reflects cell growth, was evaluated by spectrophotometry at a wavelength of 540 nm for each sample, using a Dynatech MR5000 reader machine.

For `CC[n+]1c(-c2ccccc2)c2cc(NN=Nc3cccc(C(=N)N)c3)ccc2c2ccc(N)cc21.Cl.[Cl-]` [Example 1, 7-(3-amidinophenyl)diazoamino-2-amino-10-ethyl-9-phenylphenanthridinium chloride hydrochloride], the “Fluorescence Δ Tm” value in data set [1] came to 9.7 °C. Moreover, the half-maximal inhibitory concentration (IC50) in the data set on human telomerase worked out at 19 nM; in the data set with A549 cells (96 hours incubation, neutral red incorporation, read-out: A459 Cytotox IC50) it was 3.38 µM.
In the case of “7-Amino-2-(2-amino-1,6-dimethylpyrimidinio-4-yl)-(4-aminophenyl)-10-ethylphenanthridinium bromide [Example 3]”, in data set [1], the “Fluorescence Δ Tm” value was 9.6 °C. Besides, the IC50 in the data set with human telomerase turned out to be 47 nM; in the data set on A549 cells, 13.4 µM.
For `Br.CC[n+]1c(-c2ccccc2)c2c(N=Nc3cccc(C(=N)N)c3)c(N)ccc2c2ccc(N)cc21.[Br-]` [Example 2, 8-(3-Amidinophenyl)diazo-2,7-diamino-10-ethyl-9-phenylphenanthridinium bromide hydrobromide], in data set [1], the “Fluorescence Δ Tm” value is 7.9 °C. This compound also returned an IC50 in the data set with human telomerase of 97 nM.
